Measurements reported in patent publication US20020032236A1, “Method for the treatment of dermatological diseases by using nimesulide” (priority 2000, published 2002).

Test system: pustular psoriasis, gangrenous pyoderma, capillitium erosive dermatitis and Dick & Syme syndrome
Settings: 200 mg/day for 3 weeks, followed by 100 mg/day for three weeks
Method: Double blind clinical studies were carried out on patients suffering from pustular psoriasis, gangrenous pyoderma, capillitium erosive dermatitis and Dick & Syme syndrome. Patients were treated with Nimesulide, at a dosage of 200 mg/day for 3 weeks, followed by 100 mg/day for three weeks.
At the end of the treatment, the following parameters were evaluated: number of the skin lesions extent of the skin lesions relief from pain at the nodule sites

[1] = patients, at the end of the treatment

CS(=O)(=O)Nc1ccc([N+](=O)[O-])cc1Oc1ccccc1 [Nimesulide]
remission of the "disease" (in some cases): complete remission | side effects (patients): no side effects were observed | effectiveness in the treatment of the "diseases" [1]: statistically effective | extent of the skin lesions [1]: regression of the skin lesions | number of the skin lesions [1]: regression of the skin lesions | relief from pain at the nodule sites [1]: almost complete disappearance of pain
